# Laboratory results taken from ChEMBL document CHEMBL5634174, “Biological evaluation of sulfonate and sulfate analogues of lithocholic acid: A bioisosterism-guided approach towards the discovery of potential sialyltransferase inhibitors for antimetastatic study” (Bioorg Med Chem Lett, 2024).
# Calls of active or inactive are those of the source. The calls are words filed in the database; no cut-off is given here.
# Legend:
# [1] = system: MDA-MB-231; assay: Inhibition of cell invasion in human MDA-MB-231 cells assessed as reduction in cell adhesion to fibronectin at 60 uM incubated for 24 hrs; format: functional, cell-based
# [2] = system: MDA-MB-231; assay: Antimigratory activity against human MDA-MB-231 cells at 60 uM incubated for 16 hrs by transwell migration assay; format: functional, cell-based
# [3] = biological target: T1, Beta-galactoside alpha-2,6-sialyltransferase 1 (Homo sapiens, UniProt P15907); assay: Inhibition of recombinant human N-terminal His tagged ST6GAL1 (44 to 406 residues) by UPLC-based assay
# T1 sequence (P15907 whole entry): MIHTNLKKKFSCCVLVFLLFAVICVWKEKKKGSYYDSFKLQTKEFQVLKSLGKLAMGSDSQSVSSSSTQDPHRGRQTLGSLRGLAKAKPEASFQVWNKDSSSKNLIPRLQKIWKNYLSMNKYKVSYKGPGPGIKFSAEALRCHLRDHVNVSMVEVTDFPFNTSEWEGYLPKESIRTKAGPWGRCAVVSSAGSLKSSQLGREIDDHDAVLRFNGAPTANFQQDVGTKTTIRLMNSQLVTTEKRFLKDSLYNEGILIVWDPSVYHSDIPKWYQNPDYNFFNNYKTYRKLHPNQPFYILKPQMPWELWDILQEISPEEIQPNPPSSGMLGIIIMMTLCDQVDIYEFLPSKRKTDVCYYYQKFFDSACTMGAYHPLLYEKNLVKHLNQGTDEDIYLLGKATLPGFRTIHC
# [4] = system: MDA-MB-231; assay: Inhibition of cell invasion in human MDA-MB-231 cells assessed as reduction in cell adhesion at 60 uM after 48 hrs; format: functional, cell-based
# [5] = system: MDA-MB-231; assay: Inhibition of cell invasion in human MDA-MB-231 cells assessed as reduction in cell adhesion to collagen IV at 60 uM incubated for 48 hrs; format: functional, cell-based
# [6] = biological target: T2, Sialyltransferase ST3Gal-I (Rattus norvegicus) (UniProt Q6H8N0); assay: Inhibition of rat ST3GAL1 at 1000 uM by UPLC-based assay relative to control
# T2 sequence (whole entry): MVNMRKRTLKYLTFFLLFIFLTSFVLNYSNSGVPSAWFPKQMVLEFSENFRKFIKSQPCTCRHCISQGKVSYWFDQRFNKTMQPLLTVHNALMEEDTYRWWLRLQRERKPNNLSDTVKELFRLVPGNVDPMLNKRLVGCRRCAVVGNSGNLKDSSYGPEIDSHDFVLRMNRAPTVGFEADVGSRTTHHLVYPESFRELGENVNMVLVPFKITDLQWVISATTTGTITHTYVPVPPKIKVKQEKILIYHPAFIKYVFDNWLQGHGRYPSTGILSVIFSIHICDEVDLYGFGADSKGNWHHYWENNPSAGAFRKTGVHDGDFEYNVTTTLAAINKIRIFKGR
# [7] = biological target: T3, Beta-galactoside alpha-2,6-sialyltransferase 1 (Homo sapiens) (UniProt P15907); assay: Inhibition of recombinant human N-terminal His tagged ST6GAL1 (44 to 406 residues) at 50 uM by UPLC-based assay relative to control
# T3 sequence (whole entry): T1 sequence (P15907 whole entry)
# [8] = biological target: T4, Sialyltransferase ST3Gal-I (Rattus norvegicus, UniProt Q6H8N0); assay: Inhibition of rat ST3GAL1 by UPLC-based assay
# T4 sequence (Q6H8N0 whole entry): T2 sequence (whole entry)
# [9] = Selectivity index, ratio of IC50 for inhibition of rat ST3GAL1 to IC50 for inhibition of human ST6GAL1
# [10] = biological target: T2, Sialyltransferase ST3Gal-I (Rattus norvegicus); assay: Inhibition of rat ST3GAL1 at 500 uM by UPLC-based assay relative to control
# [11] = system: MDA-MB-231; assay: Antiproliferative activity against human MDA-MB-231 cells assessed as cell viability at 80 uM by MTT assay; format: functional, cell-based
# [12] = biological target: T1, Beta-galactoside alpha-2,6-sialyltransferase 1; assay: Inhibition of human ST6GAL1 in the Galbeta1,4GlcNAcbeta-4,5-dimethoxy-2-nitrobenzyl
# [13] = biological target: T1, Beta-galactoside alpha-2,6-sialyltransferase 1; assay: Inhibition of ST6GAL1 (unknown origin)
# [14] = biological target: T5, CMP-N-acetylneuraminate-beta-galactosamide-alpha-2,3-sialyltransferase 1 (Homo sapiens, UniProt Q11201); assay: Inhibition of ST3GAL1 (unknown origin)
# T5 sequence (Q11201 whole entry): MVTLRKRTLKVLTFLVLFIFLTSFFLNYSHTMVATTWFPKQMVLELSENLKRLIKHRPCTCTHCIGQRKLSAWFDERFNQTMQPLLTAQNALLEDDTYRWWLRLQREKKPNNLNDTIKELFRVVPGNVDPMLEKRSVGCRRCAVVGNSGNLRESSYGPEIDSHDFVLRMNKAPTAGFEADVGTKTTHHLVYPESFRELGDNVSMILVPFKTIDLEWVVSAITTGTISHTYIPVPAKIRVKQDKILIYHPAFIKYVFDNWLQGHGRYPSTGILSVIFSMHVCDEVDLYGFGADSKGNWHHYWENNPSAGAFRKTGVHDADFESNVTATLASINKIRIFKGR
# [15] = biological target: T6, CMP-N-acetylneuraminate-beta-1,4-galactoside alpha-2,3-sialyltransferase (Homo sapiens, UniProt Q11203); assay: Inhibition of ST3GAL3 (unknown origin)
# T6 sequence (Q11203 whole entry): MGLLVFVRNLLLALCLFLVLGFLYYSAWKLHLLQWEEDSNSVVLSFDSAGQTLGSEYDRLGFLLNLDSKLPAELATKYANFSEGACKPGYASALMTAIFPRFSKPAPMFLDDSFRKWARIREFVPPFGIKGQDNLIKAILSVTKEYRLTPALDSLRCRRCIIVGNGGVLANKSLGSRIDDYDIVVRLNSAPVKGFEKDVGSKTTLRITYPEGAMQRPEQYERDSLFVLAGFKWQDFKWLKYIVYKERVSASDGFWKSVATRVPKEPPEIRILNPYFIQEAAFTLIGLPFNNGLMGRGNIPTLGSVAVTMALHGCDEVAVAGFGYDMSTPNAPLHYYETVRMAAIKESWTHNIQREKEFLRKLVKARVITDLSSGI
# [16] = biological target: T7, CMP-N-acetylneuraminate-beta-galactosamide-alpha-2,3-sialyltransferase 1 (Mus musculus, UniProt P54751); assay: Inhibition of mouse brain ST3Gal1 expressed in COS-7 cells using CMP-[14C]NeuAc as substrate assessed as inhibition of constant incubated for 30 mins in presence of Galbeta1,3GalNAcOBzl by Lineweaver-Burk plot analysis
# T7 sequence (P54751 whole entry): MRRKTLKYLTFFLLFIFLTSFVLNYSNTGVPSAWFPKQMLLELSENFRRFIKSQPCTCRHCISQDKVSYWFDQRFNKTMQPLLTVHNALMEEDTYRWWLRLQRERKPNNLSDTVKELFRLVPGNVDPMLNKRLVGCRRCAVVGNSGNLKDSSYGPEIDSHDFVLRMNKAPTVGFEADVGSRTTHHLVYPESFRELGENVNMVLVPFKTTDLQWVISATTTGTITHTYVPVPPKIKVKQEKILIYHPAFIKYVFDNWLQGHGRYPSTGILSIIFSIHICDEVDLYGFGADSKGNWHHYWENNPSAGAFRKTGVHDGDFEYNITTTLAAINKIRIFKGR
SMILES,IC50 [3],inhibition [6],inhibition [7],IC50 [8],inhibition [10],further results
C[C@H](CCCOS(=O)(=O)O)[C@H]1CC[C@H]2[C@@H]3CC[C@@H]4C[C@H](OS(=O)(=O)O)CC[C@]4(C)[C@H]3CC[C@]12C,21.5 µM,100%,100%,402 µM,90%,inhibition [1]: Active; Activity [2]: Active; inhibition [4]: inactive; inhibition [5]: Active; Ratio IC50 [9]: 19
C[C@H](CCCS(=O)(=O)O)[C@H]1CC[C@H]2[C@@H]3CC[C@@H]4C[C@H](O)CC[C@]4(C)[C@H]3CC[C@]12C,18.5 µM,40%,100%,> 1000 µM,5%,Activity [2]: Active; Ratio IC50 [9]: > 54
C[C@H](CCCS(=O)(=O)O)[C@H]1CC[C@H]2[C@@H]3CC[C@@H]4C[C@H](OS(=O)(=O)O)CC[C@]4(C)[C@H]3CC[C@]12C,> 50 µM,100%,0%,500 µM,35%,Activity [11]: Active
C[C@H](CCC(=O)O)[C@H]1CC[C@H]2[C@@H]3CC[C@@H]4C[C@H](OC(=O)[C@@H](N)CC(=O)O)CC[C@]4(C)[C@H]3CC[C@]12C,–,–,–,–,–,IC50 [12]: 17 µM
C[C@H](CCC(=O)NCCS(=O)(=O)O)[C@H]1CC[C@H]2[C@@H]3CC[C@@H]4C[C@H](O)CC[C@]4(C)[C@H]3C[C@H](O)[C@]12C [TAURODEOXYCHOLIC ACID],> 50 µM,–,0%,> 500 µM,3%,–
C[C@H](CCC(=O)O)[C@H]1CC[C@H]2[C@@H]3CC[C@@H]4C[C@H](OC(=O)[C@H](CC(=O)O)Nc5ccc([N+](=O)[O-])c6nonc56)CC[C@]4(C)[C@H]3CC[C@]12C,–,–,–,–,–,IC50 [13]: 1.5 µM; IC50 [14]: 13 µM; IC50 [15]: 0.88 µM
C[C@H](CCC(=O)O)[C@H]1CC[C@H]2[C@@H]3CC[C@@H]4C[C@H](OS(=O)(=O)O)CC[C@]4(C)[C@H]3CC[C@]12C,> 50 µM,82%,0%,500 µM,23%,–
C[C@H](CCC(=O)O)[C@H]1CC[C@H]2[C@@H]3[C@@H](O)C[C@@H]4C[C@H](O)CC[C@]4(C)[C@H]3CC[C@]12C [URSODIOL],> 50 µM,–,0%,> 500 µM,3%,–
C[C@H](CCC(=O)O)[C@H]1CC[C@H]2[C@@H]3CC[C@@H]4C[C@H](O)CC[C@]4(C)[C@H]3CC[C@]12C [LITHOCHOLIC ACID],> 50 µM,64%,0%,500 µM,53%,–
C[C@@H]1O[C@@H](O[C@H]2[C@H](O[C@H]3[C@H](O[C@H]4CC[C@@]5(C)[C@@H](CC[C@]6(C)[C@@H]5CC=C5[C@@H]7CC(C)(C)C[C@@H](O)[C@]7(C)CC[C@]56C)[C@@]4(C)CO)O[C@H](C(=O)O)[C@@H](O)[C@@H]3O)O[C@H](CO)[C@H](O)[C@@H]2O)[C@H](O)[C@H](O)[C@H]1O [SOYASAPONIN I],–,–,–,–,–,Ki [16]: 2.3 µM
C[C@H](CCC(=O)O)[C@H]1CC[C@H]2[C@@H]3C[C@H](O)[C@@H]4C[C@H](O)CC[C@]4(C)[C@H]3CC[C@]12C [HYODEOXYCHOLIC_ACID],> 50 µM,–,0%,> 500 µM,7%,–
C[C@H](CCC(=O)O)[C@H]1CC[C@H]2[C@@H]3[C@H](O)C[C@@H]4C[C@H](O)CC[C@]4(C)[C@H]3CC[C@]12C [CHENODIOL],> 50 µM,–,0%,> 500 µM,6%,–
